Source: patent publication US20060069132A1, “Azolecarboxamide herbicides” (priority 2004, published 2006)

Assays:
lambsquarters = assay: Test B pre-/postemergence herbicide test; format: in vivo, Chenopodium album; details: for Lambsquarters plant response rating: scale 0 (no effect) to 100 (complete control)
Method in brief: (§1)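 Flooded paddy rice and barnyardgrass were treated at the 2-leaf stage; upland plantings received compound either on sown seed or on 1- to 4-leaf seedlings. All were kept 13–15 days in a greenhouse and scored visually, 0–100, relative to untreated plants.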

corn = assay: Test B pre-/postemergence herbicide test; format: in vivo, Zea mays; details: for Plant response rating (0 to 100 scale), Corn: 0 is no effect, preemergence; for Corn plant response rating: postemergence
Method in brief: as §1

wild oat = assay: Test B postemergence herbicide test; format: in vivo, Avena fatua; details: scale 0 (no effect) to 100 (complete control)
Method in brief: (§2)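 Read-out: visual comparison with controls, scored 0 to 100, where 100 means complete control and 0 no effect. Formulated chemicals were applied postemergence to plants 2–18 cm tall (1- to 4-leaf), or to flooded-paddy plants at the 2-leaf stage, then held 13 to 15 days under glass.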

barnyardgrass [1] = assay: Test B flooded paddy test; format: in vivo, Echinochloa crus-galli; details: 1000 g ai/ha, scale 0 to 100 (0 no effect, 100 complete control)
Method in brief: (§3)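 Each value is a visual 0–100 response rating taken against controls 13 to 15 days after treatment in the greenhouse. Plants received formulated chemical postemergence at the 1- to 4-leaf stage or, in flooded paddy, at the 2-leaf stage.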

rice = assay: Test B flooded paddy test; format: in vivo, Oryza sativa; details: 1000 g ai/ha, scale 0 to 100 (0 no effect, 100 complete control)
Method in brief: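 After treating 2-leaf paddy plants or 2–18 cm postemergence plants (1 to 4 leaves) with formulated chemical, researchers kept them in a greenhouse for 13–15 days. Effects were judged visually versus controls: 0 indicates none, 100 total control.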

Surinam grass = assay: Test B pre-/postemergence herbicide test; format: in vivo, Urochloa decumbens; details: for Plant response rating (0 to 100 scale), Surinam Grass: 0 is no effect, 100 is complete control, preemergence; for Surinam Grass plant response rating: scale 0 (no effect) to 100 (complete control)
Method in brief: as §1

giant foxtail = assay: Test B pre-/postemergence herbicide test; format: in vivo, Setaria faberi; details: for Plant response rating (0 to 100 scale), Foxtail, Giant: 0 is no effect, preemergence; for Foxtail, Giant plant response rating: postemergence
Method in brief: as §1

large crabgrass = assay: Test B pre-/postemergence herbicide test; format: in vivo, Digitaria sanguinalis; details: for Plant response rating (0 to 100 scale), Crabgrass, Large: 0 is no effect, preemergence; for Crabgrass, Large plant response rating: postemergence
Method in brief: as §1

ducksalad = assay: Test B flooded paddy test; format: in vivo, Heteranthera limosa; details: 1000 g ai/ha, scale 0 to 100 (0 no effect, 100 complete control)
Method in brief: as §3

wheat = assay: Test B postemergence herbicide test; format: in vivo, Triticum aestivum; set-up: key to Wheat plant response rating: 0 = no effect, 100 = complete control
Method in brief: as §2

morningglory = assay: Test B pre-/postemergence herbicide test; format: in vivo, Ipomoea coccinea; details: for Plant response rating (0 to 100 scale), Morningglory: 0 is no effect, 100 is complete control, preemergence; for Morningglory plant response rating: scale 0 (no effect) to 100 (complete control)
Method in brief: (§4)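 Evaluation is visual, comparing treated with control plants on a scale where 0 means no effect and 100 means full control. Treatments were preemergence, or postemergence on seedlings 2–18 cm tall, and held 13–15 days in the greenhouse.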

velvetleaf = assay: Test B pre-/postemergence herbicide test; format: in vivo, Abutilon theophrasti; details: for Plant response rating (0 to 100 scale), Velvetleaf: 0 is no effect, 100 is complete control, preemergence; for Velvetleaf plant response rating: scale 0 (no effect) to 100 (complete control)
Method in brief: as §1

pigweed = assay: Test B pre-/postemergence herbicide test; format: in vivo, Amaranthus retroflexus; details: for Plant response rating (0 to 100 scale), Pigweed: 0 is no effect, 100 is complete control, preemergence; for Pigweed plant response rating: scale 0 (no effect) to 100 (complete control)
Method in brief: as §1

barnyardgrass [2] = assay: Test B pre-/postemergence herbicide test; format: in vivo, Echinochloa crus-galli; details: for Plant response rating (0 to 100 scale), Barnyardgrass: 0 is no effect, preemergence; for Barnyardgrass plant response rating: postemergence
Method in brief: as §4

cocklebur = assay: Test B pre-/postemergence herbicide test; format: in vivo, Xanthium strumarium; details: for Plant response rating (0 to 100 scale), Cocklebur: 0 is no effect, preemergence; for Cocklebur plant response rating: postemergence
Method in brief: as §4

[3] = system: small flower umbrella sedge; assay: Test B flooded paddy test; format: in vivo, Cyperus difformis; details: 1000 g ai/ha, scale 0 to 100 (0 no effect, 100 complete control)
Method in brief: as §3

blackgrass = assay: Test B postemergence herbicide test; format: in vivo, Alopecurus myosuroides; details: postemergence
Method in brief: as §3

[4] = 125 g ai/ha, visual rating, postemergence
[5] = 125 g ai/ha, 100 is complete control
[6] = 125 g ai/ha, visual rating, scale 0 (no effect) to 100 (complete control)
[7] = 500 g ai/ha, scale 0 to 100, 0 is no effect, 100 is complete control
[8] = 125 g ai/ha, visual rating, scale 0 (no effect) to 100 (complete control), postemergence
[9] = 500 g ai/ha, scale 0 to 100, 0 no effect, 100 complete control, preemergence
[10] = Postemergence, 500 g ai/ha, scale 0 (no effect) to 100 (complete control)

C#CCNC(=O)c1ccc(F)c(NC(=O)c2nn(C(C)(C)C)nc2CC)c1 [Compound 389]
Plant response rating (0 to 100 scale), Lambsquarters (lambsquarters; 125 g ai/ha, 0 is no effect, 100 is complete control, preemergence): 0 | Lambsquarters plant response rating (lambsquarters; [4]): 10 | Lambsquarters plant response rating (lambsquarters; Postemergence, 500 g ai/ha): 30 | Plant response rating (0 to 100 scale), Corn (corn; [5]): 0 | Corn plant response rating (corn; [6]): 0 | Corn plant response rating (corn; [7]): 0 | Oat, Wild plant response rating (wild oat; [4]): 0 | Oat, Wild plant response rating (wild oat; Postemergence, 500 g ai/ha): 0 | Barnyardgrass plant response rating (barnyardgrass [1]): 0 | Rice plant response rating (rice): 20 | Plant response rating (0 to 100 scale), Surinam Grass (Surinam grass; 125 g ai/ha): 0 | Surinam Grass plant response rating (Surinam grass; [4]): 0 | Surinam Grass plant response rating (Surinam grass; Postemergence, 500 g ai/ha): 10 | Plant response rating (0 to 100 scale), Foxtail, Giant (giant foxtail; [5]): 0 | Foxtail, Giant plant response rating (giant foxtail; [6]): 0 | Foxtail, Giant plant response rating (giant foxtail; [7]): 10 | Plant response rating (0 to 100 scale), Crabgrass, Large (large crabgrass; [5]): 0 | Crabgrass, Large plant response rating (large crabgrass; [6]): 0 | Crabgrass, Large plant response rating (large crabgrass; [7]): 10 | Ducksalad plant response rating (ducksalad): 0 | Wheat plant response rating (wheat; [8]): 0 | Wheat plant response rating (wheat; [9]): 0 | Wheat plant response rating (wheat; [10]): 0 | Plant response rating (0 to 100 scale), Morningglory (morningglory; 125 g ai/ha): 0 | Morningglory plant response rating (morningglory; [4]): 0 | Morningglory plant response rating (morningglory; Postemergence, 500 g ai/ha): 0 | Plant response rating (0 to 100 scale), Velvetleaf (velvetleaf; 125 g ai/ha): 0 | Velvetleaf plant response rating (velvetleaf; [4]): 0 | Velvetleaf plant response rating (velvetleaf; Postemergence, 500 g ai/ha): 20 | Plant response rating (0 to 100 scale), Pigweed (pigweed; 125 g ai/ha): 0 | Pigweed plant response rating (pigweed; [4]): 20 | Pigweed plant response rating (pigweed; Postemergence, 500 g ai/ha): 40 | Plant response rating (0 to 100 scale), Barnyardgrass (barnyardgrass [2]; [5]): 0 | Barnyardgrass plant response rating (barnyardgrass [2]; [6]): 0 | Barnyardgrass plant response rating (barnyardgrass [2]; [7]): 0 | Plant response rating (0 to 100 scale), Cocklebur (cocklebur; [5]): 0 | Cocklebur plant response rating (cocklebur; [6]): 0 | Cocklebur plant response rating (cocklebur; [7]): 0 | Sedge, Umbrella plant response rating [3]: 30 | Blackgrass plant response rating (blackgrass; [6]): 0 | Blackgrass plant response rating (blackgrass; [7]): 10

CCc1nn(C(C)(C)CC)nc1C(=O)Nc1cc(C(=O)N2CC=CC2)ccc1F [Compound 371]
Lambsquarters plant response rating (lambsquarters; [4]): 40 | Lambsquarters plant response rating (lambsquarters; Postemergence, 500 g ai/ha): 70 | Plant response rating (0 to 100 scale), Corn (corn; [5]): 0 | Corn plant response rating (corn; [6]): 10 | Corn plant response rating (corn; [7]): 10 | Oat, Wild plant response rating (wild oat; [4]): 0 | Oat, Wild plant response rating (wild oat; Postemergence, 500 g ai/ha): 10 | Barnyardgrass plant response rating (barnyardgrass [1]): 30 | Rice plant response rating (rice): 40 | Plant response rating (0 to 100 scale), Surinam Grass (Surinam grass; 125 g ai/ha): 10 | Surinam Grass plant response rating (Surinam grass; [4]): 0 | Surinam Grass plant response rating (Surinam grass; Postemergence, 500 g ai/ha): 10 | Plant response rating (0 to 100 scale), Foxtail, Giant (giant foxtail; [5]): 10 | Foxtail, Giant plant response rating (giant foxtail; [6]): 10 | Foxtail, Giant plant response rating (giant foxtail; [7]): 20 | Plant response rating (0 to 100 scale), Crabgrass, Large (large crabgrass; [5]): 10 | Crabgrass, Large plant response rating (large crabgrass; [6]): 0 | Crabgrass, Large plant response rating (large crabgrass; [7]): 10 | Ducksalad plant response rating (ducksalad): 90 | Wheat plant response rating (wheat; [8]): 0 | Wheat plant response rating (wheat; [9]): 0 | Wheat plant response rating (wheat; [10]): 10 | Plant response rating (0 to 100 scale), Morningglory (morningglory; 125 g ai/ha): 0 | Morningglory plant response rating (morningglory; [4]): 40 | Morningglory plant response rating (morningglory; Postemergence, 500 g ai/ha): 70 | Plant response rating (0 to 100 scale), Velvetleaf (velvetleaf; 125 g ai/ha): 0 | Velvetleaf plant response rating (velvetleaf; [4]): 10 | Velvetleaf plant response rating (velvetleaf; Postemergence, 500 g ai/ha): 20 | Plant response rating (0 to 100 scale), Pigweed (pigweed; 125 g ai/ha): 0 | Pigweed plant response rating (pigweed; [4]): 10 | Pigweed plant response rating (pigweed; Postemergence, 500 g ai/ha): 30 | Plant response rating (0 to 100 scale), Barnyardgrass (barnyardgrass [2]; [5]): 0 | Barnyardgrass plant response rating (barnyardgrass [2]; [6]): 0 | Barnyardgrass plant response rating (barnyardgrass [2]; [7]): 0 | Plant response rating (0 to 100 scale), Cocklebur (cocklebur; [5]): 0 | Cocklebur plant response rating (cocklebur; [6]): 20 | Cocklebur plant response rating (cocklebur; [7]): 30 | Sedge, Umbrella plant response rating [3]: 60 | Blackgrass plant response rating (blackgrass; [6]): 0 | Blackgrass plant response rating (blackgrass; [7]): 20
